Test results reported in BindingDB's records for patent US10053471 (Boehringer Ingelheim International, 2018).

Molecular target: 5'-AMP-activated protein kinase catalytic subunit alpha-1/subunit beta-1/subunit gamma-1 (Homo sapiens, UniProt P54619+Q13131+Q9Y478)
Test: in vitro AMPK activation assays
Details: pH 7; 25 °C
Experimental: The test compounds were dissolved in 100% DMSO at a concentration of 10 mM and in a first step diluted in DMSO to a concentration of 5 mM, followed by serial dilution steps in 100% DMSO. Dilution factor and number of dilution steps may vary. Typically 8 different concentrations by 1:5 dilutions were prepared, further dilutions of the substances were carried out with test buffer (20 mM Hepes (pH 7.0), 15 mM MgCl2, 0.025% BSA, 0.01% Brij 35) until a concentration was reached which was 5 times above the final test concentration. 2 μl aliquots of these dilutions were transferred into a 384-well Optiplate (Perkin Elmer, #6007290). Typically the start concentration for serial dilutions in the assay is 10 μM. Typically AMPK was diluted to 25 μg/ml in the test buffer and 4 μl of this dilution were used in the kinase test (final concentration of AMPK is 10 μg/ml in a total volume of 10 μl for the kinase reaction). Kinase concentrations may vary depending on activity of the preparation batches. […] The plates were read with an Envision Luminescence Reader (Perkin-Elmer).

5'-AMP-activated protein kinase catalytic subunit alpha-1/subunit beta-1/subunit gamma-1, sequence (Q9Y478 whole entry): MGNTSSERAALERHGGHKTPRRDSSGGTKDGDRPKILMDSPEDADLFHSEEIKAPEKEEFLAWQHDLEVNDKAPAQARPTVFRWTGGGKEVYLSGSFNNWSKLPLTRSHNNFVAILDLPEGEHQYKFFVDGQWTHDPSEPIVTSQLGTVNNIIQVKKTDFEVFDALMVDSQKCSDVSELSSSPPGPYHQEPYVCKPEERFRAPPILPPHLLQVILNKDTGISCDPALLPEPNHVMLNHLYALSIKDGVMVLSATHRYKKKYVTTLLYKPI
5'-AMP-activated protein kinase catalytic subunit alpha-1/subunit beta-1/subunit gamma-1, sequence (P54619 whole entry): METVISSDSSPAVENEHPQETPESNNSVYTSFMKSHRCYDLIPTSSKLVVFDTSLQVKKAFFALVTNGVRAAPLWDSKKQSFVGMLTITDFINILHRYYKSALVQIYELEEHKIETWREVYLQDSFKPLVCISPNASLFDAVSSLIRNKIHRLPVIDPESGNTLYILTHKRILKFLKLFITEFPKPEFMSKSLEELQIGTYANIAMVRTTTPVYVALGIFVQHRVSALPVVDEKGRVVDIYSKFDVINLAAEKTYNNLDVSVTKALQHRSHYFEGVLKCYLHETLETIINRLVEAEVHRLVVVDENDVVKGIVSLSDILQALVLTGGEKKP
5'-AMP-activated protein kinase catalytic subunit alpha-1/subunit beta-1/subunit gamma-1, sequence (Q13131 whole entry): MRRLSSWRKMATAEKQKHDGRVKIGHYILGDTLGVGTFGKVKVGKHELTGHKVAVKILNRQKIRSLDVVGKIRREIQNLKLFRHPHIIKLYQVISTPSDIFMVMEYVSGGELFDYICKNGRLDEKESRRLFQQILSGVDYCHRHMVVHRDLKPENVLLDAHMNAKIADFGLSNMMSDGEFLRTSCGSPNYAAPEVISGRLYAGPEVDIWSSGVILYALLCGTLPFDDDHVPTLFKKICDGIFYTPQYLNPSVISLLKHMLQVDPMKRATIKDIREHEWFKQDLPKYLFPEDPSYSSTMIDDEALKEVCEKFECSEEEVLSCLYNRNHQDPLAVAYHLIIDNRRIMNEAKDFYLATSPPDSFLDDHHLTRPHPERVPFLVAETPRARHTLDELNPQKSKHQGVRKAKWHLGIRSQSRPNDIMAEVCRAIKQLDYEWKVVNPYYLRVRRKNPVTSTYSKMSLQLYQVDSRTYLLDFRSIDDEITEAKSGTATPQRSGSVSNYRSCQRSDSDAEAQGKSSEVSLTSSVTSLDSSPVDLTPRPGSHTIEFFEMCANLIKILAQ

EC50: 71 nM
SMILES: CS(=N)(=O)c1ccc(-c2ccc(-c3nc4[nH]c(O[C@@H]5CO[C@H]6[C@@H]5OC[C@H]6O)nc4cc3Cl)cc2)c(F)c1 (stereo partly specified) [US10053471, 13]
